From patent US7279324B2, “Nucleic acid encoding G-protein coupled receptor with modified DRY motif” (Duke University, priority 2001, dated 2007)
Substitutions are numbered along the chain they refer to. pKd: −log10 of the molar value. “Also recorded” adds a separate entry of the source.

Key:
α1B-AR R143E-GFP [1] = target: T1, α1B-AR R143E-GFP (Mesocricetus auratus, UniProt P18841, R143E); experiment: Plasma membrane receptor expression by whole cell [3H]prazosin binding; assay type: cell-based, golden hamster; conditions: cultured in 10 μM phentolamine at 37° C. overnight; 8 nM [3H]prazosin
T1 construct: expressed in transfected cells; host or cells: HEK-293
T1 sequence (P18841 1-515 R143E): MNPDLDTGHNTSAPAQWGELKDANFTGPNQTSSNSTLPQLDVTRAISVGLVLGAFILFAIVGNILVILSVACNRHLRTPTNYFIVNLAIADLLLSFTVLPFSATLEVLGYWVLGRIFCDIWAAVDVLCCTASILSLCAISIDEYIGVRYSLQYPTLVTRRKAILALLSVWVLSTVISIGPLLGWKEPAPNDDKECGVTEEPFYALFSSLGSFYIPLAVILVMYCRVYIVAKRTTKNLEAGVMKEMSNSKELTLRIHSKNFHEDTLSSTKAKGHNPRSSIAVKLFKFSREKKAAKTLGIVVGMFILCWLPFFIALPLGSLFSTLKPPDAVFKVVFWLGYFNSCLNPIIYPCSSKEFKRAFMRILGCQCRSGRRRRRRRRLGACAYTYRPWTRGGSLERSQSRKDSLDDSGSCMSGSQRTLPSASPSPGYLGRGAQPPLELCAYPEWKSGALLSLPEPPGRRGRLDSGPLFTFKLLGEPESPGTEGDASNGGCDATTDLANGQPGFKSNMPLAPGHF
Method: (§4) For α1B-AR and AT1AR experiments: Transiently transfected HEK-293 cells in 10 cm^2 dishes were washed twice in cold binding buffer (MEM+2% bovine serum albumin [BSA]), incubated for 1 hour at room temperature in binding buffer with varying concentrations of [^3H]prazosin (0.25 nM–8 nM), and washed three times in cold binding buffer to remove unbound ligand. Cell bound [^3H]prazosin was measured using a scintillation counter. Nonspecific binding was determined in the presence of 1000-fold molar excess of phentolamine (10 μM). For binding assays done to measure the effect of the co-expression of dynamin(K44A) or the addition of phentolamine in FIG. 14, a fixed concentration of 8 nM [^3H]prazosin was used.

α1B-AR R143E-GFP [2] = target: T1, α1B-AR R143E-GFP; experiment: Receptor-GFP localization by confocal microscopy in HEK-293 cells; assay type: cell-based, golden hamster; conditions: cultured in 10 μM phentolamine at 37° C. overnight, no agonist
Method: (§1) Cell Culture and Transfection—For V2R experiments: HEK-293 cells were grown in Eagle's minimal essential medium with Earle's salt (MEM) supplemented with 10% fetal bovine serum and a 1:100 dilution of penicillin/streptomycin (Sigma Chemicals, St. Louis, Mo.). Cells were transiently transfected with plasmid cDNA using a modified calcium phosphate co-precipitation method as described in Barak et al., 1997, Mol. Pharmacol., 51:177–84. For α1B-AR and AT1AR experiments: Cells were transiently transfected in 10 cm^2 dishes (Falcon) with 1 μg receptor or GRK plasmid cDNA in pCDNA3.1(−) using above modified calcium phosphate transfection coprecipitation method for inositol phosphate and binding assays. For confocal microscopy, cells were transiently transfected in collagen (Sigma) coated 35 mm^2 glass bottom confocal dishes (MatTek, Ashland, Mass.) with Lipofectamine®2000 and Opti-MEM media (Life Technologies) using a standard method (Ciccarone, V., et al., 1999, Focus 21.2, 54–55). Cells for confocal microscopy were transfected with 30 ng of βarrestin or receptor plasmid cDNA in pEGFP and 250 ng of dynamin(K44A), GRK, or receptor in pcDNA3.1/zeo.
(§2) Confocal Microscopy—HEK-293 cells were plated on the day following transfection onto collagen (Sigma Chemical, St. Louis, Mo.) treated 35 mm^2 glass-bottomed culture dishes. Confocal microscopy was performed with a Zeiss laser-scanning microscope (LSM-510). GFP images were collected using the 488 nm argon excitation and a 505 nm long pass filter. For α1B-AR and AT1AR experiments: HEK-293 cells were transiently transfected in 35 mm^2 confocal dishes. Cells were stimulated with 10 μM NE or 1 μM AngII and incubated at 37° C. for 30 minutes before viewing. Alternatively, cells were cultured overnight at 37° C. in 10 μM phentolamine or 1 μM L158,809. Confocal microscopy was performed at 100× magnification with a Zeiss laser-scanning microscope (LSM-510). GFP and FITC images were collected using 488-nm excitation and a 505-nm long-pass filter.

wild type α1B-AR-GFP = target: T2, wild type α1B-AR-GFP (Mesocricetus auratus, UniProt P18841); experiment: as above; assay type: cell-based, golden hamster
T2 construct: expressed in transfected cells; host or cells: HEK-293
T2 sequence (P18841 1-515): T1 sequence (P18841 1-515 R143E) with E143R
Method: as §1, §2

wild type α1B-AR [3] = target: T3, wild type α1B-AR (Mesocricetus auratus, UniProt P18841); experiment: [3H]inositol phosphate accumulation in HEK-293 cells; assay type: cell-based, golden hamster; conditions: 10 μM NE, 30 min., vs absence of agonist
T3 construct: expressed in transfected cells; host or cells: HEK-293
T3 sequence (P18841 1-515): T1 sequence (P18841 1-515 R143E) with E143R
Method: (§5) Inositol Phosphate Determination—Transiently transfected HEK-293 cells in 10 cm^2 dishes were plated onto 12-well plates (Falcon) coated with 25 mg/ml poly-D-lysine (Sigma) and incubated overnight in MEM+10% FBS (fetal bovine serum) at 37° C. To assay for inositol phosphate production, cells were incubated overnight at 37° C. in labeling media (1 μCi/0.5 ml/well of [^3H]inositol in MEM+5% fetal bovine serum). Cells were washed with MEM, 20 mM HEPES, pH 7.4, 20 mM LiCl for 5 minutes at 37° C. and then treated with agonist.

α1B-AR R143 mutants [4] = experiment: as above; assay type: cell-based, golden hamster; conditions: 10 μM NE; R143 substituted with Ala, Glu, His or Asn
Method: as §5

wild type α1B-AR [5] = target: T3, wild type α1B-AR; experiment: βarrestin-GFP translocation in HEK-293 cells; assay type: cell-based, golden hamster; conditions: 10 μM NE
Method: as §1
(§3) Confocal Microscopy—HEK-293 cells were plated on the day following transfection onto collagen (Sigma Chemical, St. Louis, Mo.) treated 35 mm^2 glass-bottomed culture dishes. […]

α1B-AR R143 mutants [6] = experiment: βarrestin-GFP translocation in HEK-293 cells; assay type: cell-based, golden hamster; conditions: 10 μM NE (data not shown)
Method: as §1, §3

α1B-AR R143A = target: T4, α1B-AR R143A (Mesocricetus auratus, UniProt P18841, R143A); experiment: [3H]prazosin whole cell binding, Scatchard analysis, HEK-293 cells; set-up: species or system golden hamster; conditions: [3H]prazosin Scatchard, similar to wild type, read-out: KD for NE
T4 construct: expressed in transfected cells; host or cells: HEK-293
T4 sequence (P18841 1-515 R143A): T1 sequence (P18841 1-515 R143E) with E143A
Method: as §4

wild type α1B-AR [7] = target: T3, wild type α1B-AR; experiment: as above; set-up: species or system golden hamster; conditions: [3H]prazosin Scatchard, read-out: KD for NE
Method: as §4

AT1AR R126H [8] = target: T5, AT1AR R126H (Rattus norvegicus, UniProt P25095, L81C/R126H/S109T); experiment: [3H]inositol phosphate accumulation in HEK-293 cells; assay type: cell-based; conditions: stimulated with AngII (1 μM, 1 μg elsewhere in the source)
T5 construct: expressed in transfected cells; host or cells: HEK-293
T5 sequence (P25095 1-359 L81C/S109T/R126H): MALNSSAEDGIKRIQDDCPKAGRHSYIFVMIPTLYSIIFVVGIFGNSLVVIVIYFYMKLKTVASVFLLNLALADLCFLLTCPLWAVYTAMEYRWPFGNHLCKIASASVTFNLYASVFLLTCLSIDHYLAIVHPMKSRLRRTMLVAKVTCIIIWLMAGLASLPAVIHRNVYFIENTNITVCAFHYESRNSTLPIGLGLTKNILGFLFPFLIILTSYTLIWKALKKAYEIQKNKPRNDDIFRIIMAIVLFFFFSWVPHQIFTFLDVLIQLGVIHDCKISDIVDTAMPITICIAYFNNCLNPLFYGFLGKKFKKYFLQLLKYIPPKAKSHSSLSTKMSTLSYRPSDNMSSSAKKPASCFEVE
Method: Inositol Phosphate Determination—Transiently transfected HEK-293 cells in 10 cm^2 dishes were plated onto 12-well plates (Falcon) coated with […] poly-D-lysine (Sigma) and incubated overnight in MEM+10% FBS (fetal bovine serum) at 37° C. To assay for inositol phosphate production, cells were incubated overnight at 37° C. in labeling media (1 μCi/0.5 ml/well of [^3H]inositol in MEM+5% fetal bovine serum). Cells were washed with MEM, 20 mM HEPES, pH 7.4, 20 mM LiCl for 5 minutes at 37° C. and then treated with agonist. Total inositol phosphate was extracted and separated as previously described in Cotecchia, S., et al., 1992, J. Biol. Chem. 267: 1633–1639.

wild type AT1AR-GFP = target: T6, wild type AT1AR-GFP (Rattus norvegicus, UniProt P25095); experiment: Receptor-GFP localization by confocal microscopy in HEK-293 cells; assay type: cell-based; conditions: 1 μM AngII
T6 construct: expressed in transfected cells; host or cells: HEK-293
T6 sequence (P25095 1-359): T5 sequence (P25095 1-359 L81C/S109T/R126H) with C81L, T109S, H126R
Method: as §1, §3

wild type AT1AR = target: T7, wild type AT1AR (Rattus norvegicus, UniProt P25095); experiment: βarrestin-GFP translocation in HEK-293 cells; assay type: cell-based; conditions: 1 μM AngII
T7 construct: expressed in transfected cells; host or cells: HEK-293
T7 sequence (P25095 1-359): T5 sequence (P25095 1-359 L81C/S109T/R126H) with C81L, T109S, H126R
Method: as §1, §3

AT1AR R126H [9] = target: T5, AT1AR R126H; experiment: βarrestin-GFP translocation in HEK-293 cells; assay type: cell-based; conditions: 1 μM AngII
Method: as §1, §3

mock = experiment: Whole cell cAMP accumulation in HEK-293 cells; assay type: cell-based; conditions: 2.5 μM AVP for 15 min., mean±SD, n=3
AT1AR R126H-GFP = target: T8, AT1AR R126H-GFP (Rattus norvegicus, UniProt P25095, L81C/R126H/S109T); experiment: Receptor-GFP localization by confocal microscopy in HEK-293 cells; assay type: cell-based; conditions: cultured in 1 μM L158,809, no agonist
T8 construct: expressed in transfected cells; host or cells: HEK-293
T8 sequence (P25095 1-359 L81C/S109T/R126H): T5 sequence (P25095 1-359 L81C/S109T/R126H)
Method: as §1, §3

Cc1ccc(N(CC2=NCCN2)c2cccc(O)c2)cc1 [phentolamine]
plasma membrane receptor expression (whole cell [3H]prazosin binding) (α1B-AR R143E-GFP [1]): increases to the level of the wild type receptor
distribution of receptor-GFP (α1B-AR R143E-GFP [2]): complete reversal; also recorded: redistribution of the α1B-AR R143E-GFP from endosomes to the plasma membrane
distribution of receptor-GFP (wild type α1B-AR-GFP; cultured in 10 μM phentolamine at 37° C. overnight): no alteration in the expression of the receptor at the plasma membrane; also recorded: no effect on the distribution of the wild type α1B-AR-GFP

NC[C@H](O)c1ccc(O)c(O)c1 [NE, Norepinephrine]
increase of [3H]-IP accumulation (wild type α1B-AR [3]): 6 fold
agonist-induced IP response (α1B-AR R143 mutants [4]): significantly impaired ability to mediate an agonist-induced IP response
distribution of βarrestin-GFP (wild type α1B-AR [5]): rapid translocation of βarrestin-GFP to the plasma membrane
distribution of βarrestin-GFP (α1B-AR R143 mutants [6]): enhances this translocation
pKd (α1B-AR R143A): 8.46 to 8.82
pKd (wild type α1B-AR [7]): 8.46 to 8.82
distribution of receptor-GFP (wild type α1B-AR-GFP; 10 μM NE, 30 minutes at 37° C.): loss of plasma membrane expression and the redistribution of the receptor to endocytic vesicles

angiotensin II [AngII]
[3H]-IP accumulation / signaling compared to stimulated wild type AT1AR (AT1AR R126H [8]): slight impairment of signaling; also recorded: levels identical to HEK cells transfected with wild type AT1AR
distribution of receptor-GFP (wild type AT1AR-GFP): internalization of the receptor into endocytic vesicles
distribution of βarrestin-GFP (wild type AT1AR): redistribution of the βarrestin-GFP into endocytic vesicles
distribution of βarrestin-GFP (AT1AR R126H [9]): enhanced distribution of βarrestin-GFP into endocytic vesicles

NC(=O)CC[C@@H]1NC(=O)[C@H](Cc2ccccc2)NC(=O)[C@H](Cc2ccc(O)cc2)NC(=O)[C@@H](N)CSSC[C@@H](C(=O)N2CCC[C@H]2C(=O)N[C@@H](CCCN=C(N)N)C(=O)NCC(N)=O)NC(=O)[C@H](CC(N)=O)NC1=O [AVP, Arginine vasopressin]
stimulated cAMP response (mock): 0.017±0.006 (counts of [^3H]cAMP per min. per well)/(counts of [^3H]adenine uptake per minute per well)

CCc1nc2c(C)cc(C)nc2n1Cc1ccc(-c2ccccc2-c2nnn[nH]2)cc1 [L158,809, 2-ethyl-5,7-dimethyl-3-[[2′-(1H-tetrazol-5-yl)[1,1′-biphenyl]-4-yl]methyl]-3H-Imidazo[4,5-b]pyridine]
distribution of receptor-GFP (AT1AR R126H-GFP): reversal of the receptor localization back to the plasma membrane; also recorded: redistribution of the receptor back to the plasma membrane
